Results published in patent US20070020744A1, “Enzyme compositions that enhance the flavor of food and beverages” (Amano Enzyme USA Co., Ltd, priority 2005, published 2007).

Legend:
Protease M = assay: Relative activity on nitrophenyl-sugar substrates: Protease M; assay type: biochemical, Aspergillus oryzae; settings: 100 units arbitrarily chosen for the substrate on which Protease M exhibited the most activity
Description: (§1) The relative activity of Protease M and β-glycosidase on different sugar substrates was assessed. A panel of substrates comprising a nitrophenyl group conjugated to different sugars was used in the study.

β-glycosidase = assay: Relative activity on nitrophenyl-sugar substrates: β-glycosidase; assay type: biochemical, Penicillium multicolor; settings: 100 units arbitrarily chosen for the substrate on which β-glycosidase exhibited the most activity
Description: as §1

| Structure (SMILES) | relative activity of Protease M for the substrate (Protease M) [activity units] | relative activity of β-glycosidase for the substrate (β-glycosidase) [activity units] |
| --- | --- | --- |
| O=[N+]([O-])c1ccc(O[C@H]2O[C@H](CO)[C@H](O)[C@H](O)[C@H]2O)cc1 [4-Nitrophenyl α-D-galactopyranoside] | 6 | 100 |
| O=[N+]([O-])c1ccc(O[C@H]2O[C@H](CO)[C@@H](O)[C@H](O)[C@H]2O)cc1 [4-Nitrophenyl α-D-glucopyranoside] | 42 | 19 |
| O=[N+]([O-])c1ccc(O[C@H]2O[C@H](CO)[C@@H](O)[C@H](O)[C@@H]2O)cc1 [4-Nitrophenyl α-D-mannopyranoside] | 4 | 19 |
| O=[N+]([O-])c1ccc(O[C@@H]2OC[C@H](O)[C@H](O)[C@H]2O)cc1 [4-Nitrophenyl α-L-arabinopyranoside] | 29 | 60 |
| O=[N+]([O-])c1ccc(O[C@@H]2O[C@H](CO)[C@@H](O[C@@H]3O[C@H](CO)[C@@H](O)[C@H](O)[C@H]3O)[C@H](O)[C@H]2O)cc1 [4-Nitrophenyl β-D-cellobioside] | 68 | 55 |
| O=[N+]([O-])c1ccc(O[C@@H]2O[C@H](CO)[C@H](O)[C@H](O)[C@H]2O)cc1 [4-Nitrophenyl β-D-galactopyranoside] | 100 | 85 |
| O=C(O)[C@H]1O[C@@H](Oc2ccc([N+](=O)[O-])cc2)[C@H](O)[C@@H](O)[C@@H]1O [4-Nitrophenyl β-D-glucuronide] | 4 | 12 |
| O=[N+]([O-])c1ccc(O[C@@H]2O[C@H](CO)[C@@H](O[C@H]3O[C@H](CO)[C@@H](O)[C@H](O)[C@H]3O)[C@H](O)[C@H]2O)cc1 [4-Nitrophenyl β-D-maltoside] | 63 | 57 |
| O=[N+]([O-])c1ccc(O[C@@H]2O[C@H](CO)[C@@H](O)[C@H](O)[C@@H]2O)cc1 [4-Nitrophenyl β-D-mannopyranoside] | 10 | 12 |
